# Entries after “also recorded” stand apart in the source; their conditions may differ.
# Assay: Ex vivo skin permeation experiment
# Type: in vitro ADME
# Settings: human donor skin
# Procedure: Human donor skin was placed between upper and lower compartments. The lower compartment was filled with receiver fluid. Various rapamycin compositions were applied on the surface of the skin facing the upper compartment (11 formulations (i.e., O3, NA21, NA22, NA21, NA17, TD201, NA19, NA25, AG14, NA26 and NA24), n=6 replicates, dosage 10 mg/cm^2) and left for 24 hrs. A positive displacement pipette was used to apply the formulation (˜10 mg/cm2) to the plunger of a 1 mL syringe. The formulation (10+/−0.5 mg) was applied to the skin surface and spread over the diffusion area using the plunger. Prior to and after the application the weight of the plunger was recorded, from which the dose per cell was calculated.
# Following the time period, the excess rapamycin compositions were wiped from the skin surface and the skin layers were separated into stratum corneum, epidermis, and dermis. The Stratum corneum was removed from the human skin using a tape stripping procedure. The epidermis was separated from the dermis by dry heating at 60° C. for 2 min. Rapamycin was extracted from each layer by 90:10 v/v ethanol: water solvent mixture, and quantified. The receiver fluid in the lower compartment was also analyzed for the presence of rapamycin.
smiles,measurement,setting,value
CO[C@H]1C[C@@H]2CC[C@@H](C)[C@@](O)(O2)C(=O)C(=O)N2CCCC[C@H]2C(=O)O[C@H]([C@H](C)C[C@@H]2CC[C@@H](O)[C@H](OC)C2)CC(=O)[C@H](C)/C=C(\C)[C@@H](O)[C@@H](OC)C(=O)[C@H](C)C[C@H](C)/C=C/C=C/C=C/1C [rapamycin],"distribution of rapamycin over skin surface, stratum corneum, epidermis and dermis","10 mg/cm^2, 24 hrs",greatest amount of rapamycin was found on the surface of the skin; also recorded: more of the drug residing in the epidermis than either the stratum corneum or dermal layer; also recorded: increase in the amount of rapamycin quantified in both the epidermis and dermis
same,rapamycin in the receiver fluid,"10 mg/cm^2, any time point across the experimental period (24 hrs)",not detected

# From patent US12268673B2, “Anhydrous compositions of mTOR inhibitors and methods of use” (PALVELLA THERAPEUTICS, INC., priority 2017, dated 2025)
